Results taken from the NIST ThermoML archive (doi:10.1021/je900131q).
Where “and” joins values, the source holds several entries; their conditions need not be identical. Equal values may be shown once.

Settings: Fluid (supercritical or subcritical phases); for mass density: Buoyancy - hydrostatic balance with magnetic suspension - one sinker; for viscosity: Vibrating wire viscometer

N#N [nitrogen]
Settings	mass density	viscosity [mPa·s]
293.11 K, 1737.3 kPa	20.04 kg/m3	0.01776
293.11 K, 8684.1 kPa	100.062 kg/m3	0.01931
293.11 K, 12288 kPa	140.108 kg/m3	0.02039
293.12 K, 3456.5 kPa	39.956 kg/m3	0.01807
293.12 K, 5188.4 kPa	60.007 kg/m3	0.01843
293.12 K, 6932.1 kPa	80.084 kg/m3	0.01884
293.12 K, 16079 kPa	180.081 kg/m3	0.02168
293.12 K, 22359 kPa	240.226 kg/m3	0.02399
293.12 K, 24666 kPa	260.273 kg/m3	0.0249
293.13 K, 14176 kPa	160.309 kg/m3	0.02101
293.14 K, 1741.7 kPa	20.088 kg/m3	0.01775
293.14 K, 5190.1 kPa	60.028 kg/m3	0.01841
293.14 K, 5191.3 kPa	60.033 kg/m3	0.0184
293.14 K, 6919.8 kPa	79.938 kg/m3	0.01881
293.14 K, 6919.9 kPa	79.937 kg/m3	0.01881
293.14 K, 18079 kPa	200.088 kg/m3	0.02238
293.15 K, 168.17 kPa	1.9327 kg/m3	0.01754
293.15 K, 257.03 kPa	2.9592 kg/m3	0.01755
293.15 K, 257.04 kPa	2.9569 kg/m3	0.01755
293.15 K, 260.16 kPa	2.9879 kg/m3	0.01754
293.15 K, 348.59 kPa	4.0063 kg/m3	0.01757
293.15 K, 348.6 kPa	4.0116 kg/m3	0.01756
293.15 K, 434.63 kPa	4.9978 kg/m3	0.01756
293.15 K, 438.44 kPa	5.0442 kg/m3	0.01758
293.15 K, 438.45 kPa	5.045 kg/m3	0.01758
293.15 K, 865.03 kPa	9.9564 kg/m3	0.01763
293.15 K, 865.04 kPa	9.9572 kg/m3	0.01763
293.15 K, 867.69 kPa	9.9877 kg/m3	0.01763
293.15 K, 3452.3 kPa	39.892 kg/m3	0.01805
293.15 K, 8683.4 kPa	100.04 kg/m3	0.01928
293.16 K, 87.06 kPa	1.0006 kg/m3	0.0175
293.16 K, 174.08 kPa	2.0011 kg/m3	0.01753
293.16 K, 6917.3 kPa	79.905 kg/m3	0.01881
293.16 K, 8683.4 kPa	100.03 kg/m3	0.01928
293.16 K, 10467 kPa	120.042 kg/m3	0.01983
293.16 K, 10724 kPa	122.91 kg/m3 and 122.9 kg/m3	0.01987
293.16 K, 20166 kPa	220.109 kg/m3	0.02316
293.16 K, 27067 kPa	279.903 kg/m3	0.02585
293.16 K, 30306 kPa	304.692 kg/m3	0.02713
293.17 K, 347.38 kPa	3.995 kg/m3	0.01756
293.17 K, 434.86 kPa	5.0007 kg/m3	0.01757
293.17 K, 30306 kPa	304.691 kg/m3	0.02714
293.18 K, 69.62 kPa	0.79943 kg/m3	0.01749
423.09 K, 1261.4 kPa	9.9995 kg/m3	0.02309
423.09 K, 2533.5 kPa	20.001 kg/m3	0.0232
423.09 K, 7760.6 kPa	60.009 kg/m3	0.02382
423.09 K, 19172 kPa	140.043 kg/m3	0.02569
423.09 K, 25569 kPa	180.07 kg/m3	0.02695
423.1 K, 377.31 kPa	2.9994 kg/m3	0.02301
423.1 K, 629.65 kPa	5.0007 kg/m3	0.02304
423.1 K, 5117.5 kPa	40.01 kg/m3	0.02347
423.1 K, 22320 kPa	160.186 kg/m3	0.02629
423.11 K, 100.56 kPa	0.79993 kg/m3	0.02294
423.11 K, 125.69 kPa	0.99956 kg/m3	0.02295
423.11 K, 251.45 kPa	1.9998 kg/m3	0.02299
423.11 K, 10470 kPa	79.969 kg/m3	0.0242
423.11 K, 13263 kPa	99.939 kg/m3	0.02464
423.12 K, 503.26 kPa	3.9997 kg/m3	0.02303
423.12 K, 16171 kPa	120.044 kg/m3	0.02513
423.15 K, 30228 kPa	206.995 kg/m3	0.02791
423.15 K, 30257 kPa	207.176 kg/m3	0.02792
423.16 K, 30225 kPa	206.975 kg/m3	0.02791
